This is an account of results in patent US20250134853A1, “COMPOUNDS AND METHODS FOR USING GALLOYLATED POLYPHENOLS TO TREAT DISEASES MEDIATED BY THIOL ISOMERASES” (Beth Israel Deaconess Medical Center, Inc., priority 2023, published 2025).

Data set [1] concerns SARS-CoV-2. As to the kind of experiment: Vero E6-based viral replication assay. In kind it is cell-based.
Data set [2] deals with bleeding following tail clip. As to the kind of experiment: Tail clip assay of hemostasis. Particulars: 25 μg/g PGHG, intraperitoneal injection.
The target of another data set is T1, ERp72 (Homo sapiens, UniProt P13667).
T1 construct: recombinant His-tagged full-length ERp5, ERp72; His-tag; made in house; host or cells: Escherichia coli Origami B (DE3)
T1 sequence (P13667 21-645): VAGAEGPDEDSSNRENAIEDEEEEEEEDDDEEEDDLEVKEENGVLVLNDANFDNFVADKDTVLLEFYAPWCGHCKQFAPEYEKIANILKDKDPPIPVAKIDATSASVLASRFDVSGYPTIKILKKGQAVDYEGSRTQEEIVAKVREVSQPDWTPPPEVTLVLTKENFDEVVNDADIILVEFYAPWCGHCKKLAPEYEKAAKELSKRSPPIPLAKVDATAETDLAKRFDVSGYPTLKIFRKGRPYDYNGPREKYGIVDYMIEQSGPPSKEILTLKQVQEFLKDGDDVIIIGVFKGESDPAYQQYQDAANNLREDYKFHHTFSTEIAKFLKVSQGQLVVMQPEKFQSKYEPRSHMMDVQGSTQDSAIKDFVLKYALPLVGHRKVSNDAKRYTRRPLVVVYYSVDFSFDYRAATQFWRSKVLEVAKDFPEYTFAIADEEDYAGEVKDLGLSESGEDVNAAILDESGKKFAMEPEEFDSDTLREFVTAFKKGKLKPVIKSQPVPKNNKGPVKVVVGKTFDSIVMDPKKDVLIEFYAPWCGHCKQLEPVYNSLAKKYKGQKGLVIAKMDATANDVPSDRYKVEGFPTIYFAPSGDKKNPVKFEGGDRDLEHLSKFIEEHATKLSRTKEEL
As to the kind of experiment: Di-eosin-GSSG disulfide reductase assay, ERp72. In kind it is biochemical. From the text:
(§1) Recombinant protein purification. Recombinant ‘double-tagged’ (streptavidin-binding protein-tagged and FLAG-tagged) full-length PDI, ERp57, recombinant His-tagged full-length ERp5, ERp72, PDI domain fragments, and PDI mutant were cloned into a pET-15b vector at the NdeI and BamHI sites and transformed into Escherichia coli Origami B (DE3) cells (EMD Chemicals). The recombinant proteins were expressed and isolated by affinity chromatography with complete His-Tag purification resin (Roche Applied Science) or Pierce High-Capacity Streptavidin Agarose beads and purified on a Superdex 200 (GE Healthcare).
(§2) Di-eosin-GSSG disulfide reductase assay. […] Any fraction with a fold change >5 was kept.

Data set [3] addresses T2, PDI (Homo sapiens, UniProt P07237).
T2 construct: FLAG; made in house; host or cells: Escherichia coli Origami B (DE3)
As to the kind of experiment: Insulin reductase assay. In kind it is biochemical. The note with it: PGHG incubated with PDI for 15 minutes.
Description: Insulin reductase assay. Insulin was prepared by mixing 12.5 mg/mL insulin in 50 mM Tris-HCl, pH 8. 1 M HCl was carefully added to drop the pH to 2.0 for solution clarification. Once the solution clarifies, 1 M NaOH was added to rapidly adjust the pH back to 8.0. The solution was then adjusted to 1.5 mM (10 mg/mL) with 50 mM Tris-HCl, aliquoted and stored in −20° C. until use. 2× concentrations of thiol isomerases were prepared (final concentrations as indicated in each assay) and mixed with 1.2 mM DTT (final 0.3 mM) and 0.4 mM insulin (final 0.1 mM) using a thiol isomerase activity assay buffer. Insulin precipitation from enzyme-mediated reduction was assayed in 96-well clear bottom plates at 650 nm absorption.

Another data set deals with T3, ERp57 (Homo sapiens, UniProt P30101).
T3 construct: FLAG; made in house; host or cells: Escherichia coli Origami B (DE3)
T3 sequence (P30101 25-505): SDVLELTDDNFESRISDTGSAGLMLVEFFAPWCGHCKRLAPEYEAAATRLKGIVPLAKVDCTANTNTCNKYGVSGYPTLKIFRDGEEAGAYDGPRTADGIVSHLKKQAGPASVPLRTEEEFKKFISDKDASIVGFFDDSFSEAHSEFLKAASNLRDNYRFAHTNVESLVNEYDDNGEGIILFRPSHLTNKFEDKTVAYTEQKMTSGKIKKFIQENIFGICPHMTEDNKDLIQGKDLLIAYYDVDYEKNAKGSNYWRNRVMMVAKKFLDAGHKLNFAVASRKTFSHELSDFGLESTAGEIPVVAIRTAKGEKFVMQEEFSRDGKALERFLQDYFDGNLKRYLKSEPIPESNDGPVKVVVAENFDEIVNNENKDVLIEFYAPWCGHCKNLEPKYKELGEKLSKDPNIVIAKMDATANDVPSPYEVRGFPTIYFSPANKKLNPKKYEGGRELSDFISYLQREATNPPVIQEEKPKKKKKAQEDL
As to the kind of experiment: Di-eosin-GSSG disulfide reductase assay, ERp57. In kind it is biochemical.
Description: as §1, §2

For data set [4], the system named is PDI domain fragments (a, a′, ab, abb′, b′xa′). In words: Di-eosin-GSSG assay on isolated PDI domain fragments. In kind it is biochemical. The note with it: a, ab, b′xa′, abb′ fragments; PGHG at 10 μM.
Description: (§3) Di-eosin-GSSG disulfide reductase assay. The probe di-eosin glutathione disulfide, di-eosin-GSSG, was prepared by incubating 100 μM of GSSG with 1 mM of eosin isothiocyanate in 100 mM potassium phosphate containing 2 mM EDTA (pH 7.4), at 25° C. overnight in the dark. The mixture was passed down a PD-10 column and different fractions were collected. A fold change of fluorescence (Ex: 520 nm, Em: 550 nm) was calculated using samples subjected to either vehicle or 20 mM of DTT. Any fraction with a fold change >5 was kept. Using a stock of 10 mM eosin isothiocyanate, a standard curve was generated and concentration of samples were determined accordingly. Di-eosin-GSSG cleavage of purified thiol isomerases and PDI domains was monitored in a 96-well fluorescence plate format. PDI, CGXC-PDI variants, ERp5, ERp57, ERp46 and PDI domains were assayed at 50 nM in the presence or absence of the indicated small molecules. The assay included a thiol isomerase assay buffer (39 mM KH2PO4, 61 mM K2HPO4, 2 mM EDTA, 5 M DTT, pH 7.4) and 150 nM of the di-eosin-GSSG probe. The increase in fluorescence was determined for 60 min by excitation at 520 nm and emission at 550 nm in a Synergy Biotek 4. The reduction of 150 nM di-eosin-GSSG by 5 μM DTT in the presence or absence of mentioned small molecule or proteins served as a negative control.
A further data set addresses SARS-CoV-2 M^pro (Severe acute respiratory syndrome coronavirus 2, UniProt P0DTD1). The note with it: literature values (Table 2); read-out: SARS-CoV-2 M^pro inhibition; cited from earlier work.
For data set [5], the target named is T2, PDI. As to the kind of experiment: Di-eosin-GSSG disulfide reductase assay, PDI. It counts as biochemical.
Description: as §3
Data set [6] deals with SARS-CoV-2. Particulars: cited from earlier work.

“Also recorded” adds a separate entry of the source. Like-named read-outs stand apart in the source and are kept apart here.

T2 sequence (P07237 18-508): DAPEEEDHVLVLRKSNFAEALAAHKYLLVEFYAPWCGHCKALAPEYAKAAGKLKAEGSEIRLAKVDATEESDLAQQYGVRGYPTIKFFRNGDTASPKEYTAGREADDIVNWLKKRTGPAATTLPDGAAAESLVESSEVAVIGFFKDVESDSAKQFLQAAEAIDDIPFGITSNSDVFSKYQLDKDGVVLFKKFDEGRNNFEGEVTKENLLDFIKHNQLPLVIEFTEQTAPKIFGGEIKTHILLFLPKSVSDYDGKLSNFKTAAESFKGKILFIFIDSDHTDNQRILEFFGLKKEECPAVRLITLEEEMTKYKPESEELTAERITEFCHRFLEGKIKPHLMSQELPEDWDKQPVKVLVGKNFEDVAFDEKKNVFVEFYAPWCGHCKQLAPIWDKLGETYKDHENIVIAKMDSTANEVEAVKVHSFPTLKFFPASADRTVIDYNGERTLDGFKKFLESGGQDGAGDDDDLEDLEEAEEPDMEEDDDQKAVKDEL

As to `O=C(O[C@@H]1[C@@H](O)[C@H](Oc2cc(O)c3c(c2)O[C@H](c2ccccc2)CC3=O)O[C@@H]2COC(=O)c3cc(O)c(O)c(O)c3-c3c(cc(O)c(O)c3O)C(=O)O[C@@H]12)c1cc(O)c(O)c(O)c1` [PGHG, pinocembrin 7-O-(3″-galloyl-4″,6″-(S)-hexahydroxydiphenoyl)-beta-D-glucose], the IC50 in the data set on SARS-CoV-2 [1] is 4.9 µM; on ERp72, 7.8 µM; against ERp57 it was 3.3 µM; on SARS-CoV-2 M^pro, 6.5 µM; on PDI [5] (read-out: PDI reductase activity IC50), 1.5 ± 0.6 µM; in the data set on SARS-CoV-2 [6] (Vero Cells, read-out: Inhibition of viral replication IC50), 5 µM. In addition, in data set [2], the “time to cessation of bleeding” value is “did not prolong the time to cessation of bleeding; also recorded: did not prolong the time required for bleeding to subside”. Besides, the total blood loss result in [2] is listed as “nor the total amount of blood loss; also recorded: nor did it significantly affect total blood loss”. Moreover, the “inhibition of PDI in insulin reductase assay (in words)” value on PDI [3] is recorded as “low micromolar range”. Moreover, the “inhibition of isolated PDI fragments” value in [4] is “inhibited a and a′ fragments as well as ab, b′xa′ and abb′x fragments; also recorded: inhibited activity of all fragments including the isolated the a and a′ domains”. The “inhibition of PDI (in words)” value against PDI [5] is recorded as “low micromolar range; also recorded: inhibit PDI”. In addition, the “inhibition of SARS-CoV-2 / infection (in words)” value in the data set with SARS-CoV-2 [6] is recorded as “inhibitors of SARS-CoV-2”.
